Data reported in ChEMBL document CHEMBL4507274 (2021).

Columns and labels:
[1] = tested on: Tyrosine-protein kinase ABL1 (Homo sapiens), P00519 [Q252H]; conditions: Compound concentration 100.0 nM
[2] = target: Calcium/calmodulin-dependent protein kinase type 1 (Homo sapiens) (UniProt Q14012); conditions: Compound concentration 100.0 nM
[3] = target: Calcium/calmodulin-dependent protein kinase kinase 2 (Homo sapiens) (UniProt Q96RR4); conditions: Compound concentration 100.0 nM
[4] = target: Cyclin-dependent kinase 5 (Homo sapiens) (UniProt Q00535); conditions: Compound concentration 100.0 nM
[5] = target: Cyclin-dependent kinase-like 1 (Homo sapiens) (UniProt Q00532); conditions: Compound concentration 100.0 nM
[6] = target: Casein kinase I isoform gamma-1 (Homo sapiens) (UniProt Q9HCP0); conditions: Compound concentration 100.0 nM
[7] = target: Death-associated protein kinase 2 (Homo sapiens) (UniProt Q9UIK4); conditions: Compound concentration 100.0 nM
[8] = target: Ephrin type-B receptor 1 (Homo sapiens) (UniProt P54762); conditions: Compound concentration 100.0 nM
[9] = target: Ephrin type-B receptor 3 (Homo sapiens) (UniProt P54753); conditions: Compound concentration 100.0 nM
Ephrin type-B receptor 3 (Homo sapiens), sequence (P54753 whole entry): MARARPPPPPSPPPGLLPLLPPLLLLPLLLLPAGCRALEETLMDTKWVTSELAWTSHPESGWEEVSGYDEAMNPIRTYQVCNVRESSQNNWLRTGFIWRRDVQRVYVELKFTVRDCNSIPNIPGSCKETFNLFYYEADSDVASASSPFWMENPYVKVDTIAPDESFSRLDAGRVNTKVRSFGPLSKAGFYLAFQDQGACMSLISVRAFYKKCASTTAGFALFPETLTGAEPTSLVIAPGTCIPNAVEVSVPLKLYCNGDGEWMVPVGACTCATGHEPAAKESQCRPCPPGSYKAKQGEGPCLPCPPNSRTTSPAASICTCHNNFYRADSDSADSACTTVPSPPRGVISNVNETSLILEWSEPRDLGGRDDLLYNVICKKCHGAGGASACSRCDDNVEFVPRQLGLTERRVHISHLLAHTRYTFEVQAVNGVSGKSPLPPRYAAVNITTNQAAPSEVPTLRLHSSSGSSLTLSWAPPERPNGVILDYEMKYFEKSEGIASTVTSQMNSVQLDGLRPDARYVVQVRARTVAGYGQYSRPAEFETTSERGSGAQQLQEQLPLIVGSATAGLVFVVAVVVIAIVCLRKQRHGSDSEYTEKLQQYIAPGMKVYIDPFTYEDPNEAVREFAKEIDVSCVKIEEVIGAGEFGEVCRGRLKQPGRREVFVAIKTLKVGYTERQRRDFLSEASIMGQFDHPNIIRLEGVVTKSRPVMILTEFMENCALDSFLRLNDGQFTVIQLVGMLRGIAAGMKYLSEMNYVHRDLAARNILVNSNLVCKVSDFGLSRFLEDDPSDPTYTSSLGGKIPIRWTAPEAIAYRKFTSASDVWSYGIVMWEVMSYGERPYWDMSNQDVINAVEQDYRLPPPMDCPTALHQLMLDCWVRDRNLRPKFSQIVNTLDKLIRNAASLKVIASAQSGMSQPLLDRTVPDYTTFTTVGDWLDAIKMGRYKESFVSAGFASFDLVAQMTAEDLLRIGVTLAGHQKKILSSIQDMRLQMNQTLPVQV

[10] = target: Tyrosine-protein kinase Fyn (Homo sapiens) (UniProt P06241); conditions: Compound concentration 100.0 nM
[11] = target: Homeodomain-interacting protein kinase 3 (Homo sapiens) (UniProt Q9H422); conditions: Compound concentration 100.0 nM
[12] = target: Interleukin-1 receptor-associated kinase 3 (Homo sapiens) (UniProt Q9Y616); conditions: Compound concentration 100.0 nM
[13] = tested on: Mast/stem cell growth factor receptor Kit (Homo sapiens), P10721 [L576P]; conditions: Compound concentration 100.0 nM
[14] = target: Mast/stem cell growth factor receptor Kit (Homo sapiens) (UniProt P10721); conditions: Compound concentration 100.0 nM
[15] = target: Tyrosine-protein kinase Lck (Homo sapiens) (UniProt P06239); conditions: Compound concentration 100.0 nM
Tyrosine-protein kinase Lck (Homo sapiens), sequence (P06239 2-509 limits assumed): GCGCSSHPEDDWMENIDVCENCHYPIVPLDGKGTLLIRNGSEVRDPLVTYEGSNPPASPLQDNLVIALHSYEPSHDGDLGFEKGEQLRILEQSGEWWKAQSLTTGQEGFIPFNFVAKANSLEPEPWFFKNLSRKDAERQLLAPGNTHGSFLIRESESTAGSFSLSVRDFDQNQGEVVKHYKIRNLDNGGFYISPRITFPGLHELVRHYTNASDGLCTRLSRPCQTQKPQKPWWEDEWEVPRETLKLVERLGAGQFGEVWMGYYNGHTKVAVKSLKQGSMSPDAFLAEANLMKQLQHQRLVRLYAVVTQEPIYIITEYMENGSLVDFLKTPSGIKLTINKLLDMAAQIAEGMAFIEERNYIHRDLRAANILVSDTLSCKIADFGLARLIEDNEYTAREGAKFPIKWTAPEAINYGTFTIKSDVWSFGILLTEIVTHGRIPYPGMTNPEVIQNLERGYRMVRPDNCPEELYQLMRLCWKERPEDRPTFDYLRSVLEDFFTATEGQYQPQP

[16] = target: Serine/threonine-protein kinase 10 (Homo sapiens) (UniProt O94804); conditions: Compound concentration 100.0 nM
[17] = target: Serine/threonine-protein kinase MAK (Homo sapiens) (UniProt P20794); conditions: Compound concentration 100.0 nM
[18] = target: Mitogen-activated protein kinase kinase kinase kinase 3 (Homo sapiens) (UniProt Q8IVH8); conditions: Compound concentration 100.0 nM
[19] = target: Dual specificity mitogen-activated protein kinase kinase 4 (Homo sapiens) (UniProt P45985); conditions: Compound concentration 100.0 nM
Dual specificity mitogen-activated protein kinase kinase 4 (Homo sapiens), sequence (P45985 whole entry): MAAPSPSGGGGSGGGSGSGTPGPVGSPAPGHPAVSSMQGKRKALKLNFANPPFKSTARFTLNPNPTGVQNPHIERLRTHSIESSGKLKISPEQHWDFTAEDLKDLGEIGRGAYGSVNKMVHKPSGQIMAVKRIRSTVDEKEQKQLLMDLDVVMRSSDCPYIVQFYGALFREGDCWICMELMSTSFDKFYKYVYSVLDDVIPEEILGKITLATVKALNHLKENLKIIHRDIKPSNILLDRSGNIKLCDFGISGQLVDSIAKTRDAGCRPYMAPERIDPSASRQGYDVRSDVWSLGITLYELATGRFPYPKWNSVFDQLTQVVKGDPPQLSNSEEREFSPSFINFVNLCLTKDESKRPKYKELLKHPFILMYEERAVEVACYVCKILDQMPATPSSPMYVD

[20] = target: Platelet-derived growth factor receptor beta (Homo sapiens) (UniProt P09619); conditions: Compound concentration 100.0 nM
[21] = target: T1, Serine/threonine-protein kinase D1 (Homo sapiens) (UniProt Q15139); conditions: Compound concentration 100.0 nM
T1 sequence (whole entry): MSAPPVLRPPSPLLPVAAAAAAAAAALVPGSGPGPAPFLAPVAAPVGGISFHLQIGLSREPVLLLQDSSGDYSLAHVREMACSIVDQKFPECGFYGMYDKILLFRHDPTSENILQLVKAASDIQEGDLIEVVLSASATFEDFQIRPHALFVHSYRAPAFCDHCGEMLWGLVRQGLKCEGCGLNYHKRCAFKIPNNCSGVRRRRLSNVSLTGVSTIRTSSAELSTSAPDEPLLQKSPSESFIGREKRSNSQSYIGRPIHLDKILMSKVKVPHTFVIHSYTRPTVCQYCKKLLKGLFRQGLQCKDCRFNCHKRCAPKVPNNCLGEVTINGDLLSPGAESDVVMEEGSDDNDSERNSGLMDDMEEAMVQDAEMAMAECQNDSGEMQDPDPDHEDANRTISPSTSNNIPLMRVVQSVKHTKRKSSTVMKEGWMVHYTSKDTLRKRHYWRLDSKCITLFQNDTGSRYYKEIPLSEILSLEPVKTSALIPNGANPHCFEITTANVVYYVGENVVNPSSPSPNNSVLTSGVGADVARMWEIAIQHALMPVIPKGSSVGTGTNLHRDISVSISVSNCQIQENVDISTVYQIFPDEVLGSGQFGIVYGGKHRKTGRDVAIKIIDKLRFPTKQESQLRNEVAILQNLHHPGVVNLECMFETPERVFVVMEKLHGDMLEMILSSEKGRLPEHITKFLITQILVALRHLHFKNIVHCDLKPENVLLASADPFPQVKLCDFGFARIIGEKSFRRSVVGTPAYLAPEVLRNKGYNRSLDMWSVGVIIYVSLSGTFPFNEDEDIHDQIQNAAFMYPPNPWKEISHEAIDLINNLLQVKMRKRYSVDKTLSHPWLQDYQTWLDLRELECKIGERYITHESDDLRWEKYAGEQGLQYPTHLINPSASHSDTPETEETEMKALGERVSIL

[22] = target: Serine/threonine-protein kinase SIK3 (Homo sapiens) (UniProt Q9Y2K2); conditions: Compound concentration 100.0 nM
Serine/threonine-protein kinase SIK3 (Homo sapiens), sequence (Q9Y2K2 whole entry, looked up): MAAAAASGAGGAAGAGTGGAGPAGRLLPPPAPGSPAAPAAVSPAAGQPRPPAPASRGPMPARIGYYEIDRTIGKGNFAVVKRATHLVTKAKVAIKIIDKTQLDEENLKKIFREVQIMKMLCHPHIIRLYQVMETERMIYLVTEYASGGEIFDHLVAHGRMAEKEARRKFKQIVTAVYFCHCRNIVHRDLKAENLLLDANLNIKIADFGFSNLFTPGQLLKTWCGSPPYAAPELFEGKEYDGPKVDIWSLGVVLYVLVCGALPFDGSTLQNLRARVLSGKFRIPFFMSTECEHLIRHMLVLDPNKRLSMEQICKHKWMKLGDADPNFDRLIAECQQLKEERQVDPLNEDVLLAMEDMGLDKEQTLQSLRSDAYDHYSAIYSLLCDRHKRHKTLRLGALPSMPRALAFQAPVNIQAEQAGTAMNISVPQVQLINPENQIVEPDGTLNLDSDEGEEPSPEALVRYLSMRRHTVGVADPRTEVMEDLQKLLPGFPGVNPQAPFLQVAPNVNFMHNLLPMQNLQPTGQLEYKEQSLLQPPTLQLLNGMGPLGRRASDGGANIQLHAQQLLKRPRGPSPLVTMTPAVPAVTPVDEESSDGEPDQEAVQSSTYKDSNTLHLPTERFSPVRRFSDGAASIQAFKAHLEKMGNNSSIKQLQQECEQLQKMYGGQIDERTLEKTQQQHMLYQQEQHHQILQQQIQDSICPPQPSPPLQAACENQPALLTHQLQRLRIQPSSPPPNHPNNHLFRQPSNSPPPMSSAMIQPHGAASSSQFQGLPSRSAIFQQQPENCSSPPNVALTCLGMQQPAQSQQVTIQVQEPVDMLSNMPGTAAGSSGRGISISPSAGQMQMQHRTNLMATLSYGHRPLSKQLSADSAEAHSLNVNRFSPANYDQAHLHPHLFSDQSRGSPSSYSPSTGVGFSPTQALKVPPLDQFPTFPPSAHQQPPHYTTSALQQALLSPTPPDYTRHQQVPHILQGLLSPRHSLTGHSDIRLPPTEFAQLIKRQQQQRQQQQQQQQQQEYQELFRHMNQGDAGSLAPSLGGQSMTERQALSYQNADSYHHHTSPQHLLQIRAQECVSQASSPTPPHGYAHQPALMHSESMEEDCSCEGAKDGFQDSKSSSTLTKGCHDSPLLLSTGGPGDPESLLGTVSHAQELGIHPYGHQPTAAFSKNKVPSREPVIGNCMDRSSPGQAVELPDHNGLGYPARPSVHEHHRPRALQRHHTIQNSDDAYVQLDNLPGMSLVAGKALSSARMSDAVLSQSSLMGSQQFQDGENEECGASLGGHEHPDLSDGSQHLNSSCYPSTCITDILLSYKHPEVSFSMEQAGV

[23] = target: Ribosomal protein S6 kinase alpha-2 (Homo sapiens) (UniProt Q15349); conditions: Compound concentration 100.0 nM
[24] = target: Serine/threonine-protein kinase SBK1 (Homo sapiens) (UniProt Q52WX2); conditions: Compound concentration 100.0 nM
Serine/threonine-protein kinase SBK1 (Homo sapiens), sequence (Q52WX2 whole entry): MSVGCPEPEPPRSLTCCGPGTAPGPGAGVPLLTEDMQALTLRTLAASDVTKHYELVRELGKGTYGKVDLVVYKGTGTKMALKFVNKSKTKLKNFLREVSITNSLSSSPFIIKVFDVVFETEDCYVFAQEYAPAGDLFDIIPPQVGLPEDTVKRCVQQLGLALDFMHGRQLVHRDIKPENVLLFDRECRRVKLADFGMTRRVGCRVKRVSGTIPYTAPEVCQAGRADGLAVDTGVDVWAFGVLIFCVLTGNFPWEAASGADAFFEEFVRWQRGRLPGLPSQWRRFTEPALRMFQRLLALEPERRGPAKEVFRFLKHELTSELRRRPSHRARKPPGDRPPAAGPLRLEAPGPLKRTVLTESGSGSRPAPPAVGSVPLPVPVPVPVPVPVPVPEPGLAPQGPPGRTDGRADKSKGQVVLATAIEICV

[25] = target: SRSF protein kinase 2 (Homo sapiens) (UniProt P78362); conditions: Compound concentration 100.0 nM
[26] = target: SRSF protein kinase 3 (Homo sapiens) (UniProt Q9UPE1); conditions: Compound concentration 100.0 nM
[27] = target: Serine/threonine-protein kinase TNNI3K (Homo sapiens) (UniProt Q59H18); conditions: Compound concentration 100.0 nM
Serine/threonine-protein kinase TNNI3K (Homo sapiens), sequence (Q59H18 whole entry): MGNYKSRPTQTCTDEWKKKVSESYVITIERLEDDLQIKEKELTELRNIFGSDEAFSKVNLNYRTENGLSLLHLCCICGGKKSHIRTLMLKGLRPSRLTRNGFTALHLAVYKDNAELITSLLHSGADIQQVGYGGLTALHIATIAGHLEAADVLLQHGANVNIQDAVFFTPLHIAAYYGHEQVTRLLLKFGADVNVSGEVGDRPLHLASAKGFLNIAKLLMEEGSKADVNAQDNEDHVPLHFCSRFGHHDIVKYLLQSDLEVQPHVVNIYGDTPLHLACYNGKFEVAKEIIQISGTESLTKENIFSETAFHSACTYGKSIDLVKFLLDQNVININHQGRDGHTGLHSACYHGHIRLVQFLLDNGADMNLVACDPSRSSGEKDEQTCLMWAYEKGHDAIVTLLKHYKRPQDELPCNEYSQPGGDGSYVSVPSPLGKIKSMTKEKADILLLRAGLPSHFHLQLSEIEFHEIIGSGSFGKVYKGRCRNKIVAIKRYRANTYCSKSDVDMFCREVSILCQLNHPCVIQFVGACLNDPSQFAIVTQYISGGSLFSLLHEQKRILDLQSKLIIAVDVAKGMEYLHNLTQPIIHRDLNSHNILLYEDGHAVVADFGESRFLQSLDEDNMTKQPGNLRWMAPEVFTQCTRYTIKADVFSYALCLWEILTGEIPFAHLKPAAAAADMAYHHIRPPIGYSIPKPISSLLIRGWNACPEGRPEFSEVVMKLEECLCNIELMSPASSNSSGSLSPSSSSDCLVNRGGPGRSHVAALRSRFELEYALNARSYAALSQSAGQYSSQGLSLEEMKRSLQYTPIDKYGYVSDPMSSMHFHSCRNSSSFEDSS

[28] = target: NT-3 growth factor receptor (Homo sapiens) (UniProt Q16288); conditions: Compound concentration 100.0 nM
[29] = target: Tyrosine-protein kinase TXK (Homo sapiens) (UniProt P42681); conditions: Compound concentration 100.0 nM
[30] = target: Phosphatidylinositol 3-kinase catalytic subunit type 3 (Homo sapiens) (UniProt Q8NEB9); conditions: Compound concentration 100.0 nM
[31] = target: 5-hydroxytryptamine receptor 6 (Homo sapiens) (UniProt P50406); conditions: Compound concentration 10.0 uM
[32] = target: Kappa-type opioid receptor (Homo sapiens, UniProt P41145); conditions: Compound concentration 10.0 uM
[33] = target: Histamine H4 receptor (Homo sapiens) (UniProt Q9H3N8); conditions: Compound concentration 10.0 uM

Calcium/calmodulin-dependent protein kinase type 1 (Homo sapiens), sequence (Q14012 whole entry, looked up): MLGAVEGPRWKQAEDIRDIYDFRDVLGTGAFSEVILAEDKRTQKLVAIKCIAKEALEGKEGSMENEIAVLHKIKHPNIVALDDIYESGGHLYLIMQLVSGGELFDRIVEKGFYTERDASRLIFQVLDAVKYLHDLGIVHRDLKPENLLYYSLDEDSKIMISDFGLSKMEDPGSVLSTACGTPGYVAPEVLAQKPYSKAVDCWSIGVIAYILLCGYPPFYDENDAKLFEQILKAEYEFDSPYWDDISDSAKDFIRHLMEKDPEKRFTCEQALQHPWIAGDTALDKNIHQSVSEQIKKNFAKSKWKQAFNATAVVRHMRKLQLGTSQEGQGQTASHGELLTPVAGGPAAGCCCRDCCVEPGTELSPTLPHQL

| Compound | residual activity [1] [%] | residual activity [2] [%] | residual activity [3] [%] | residual activity [4] [%] | residual activity [5] [%] | residual activity [6] [%] | residual activity [7] [%] | residual activity [8] [%] | residual activity [9] [%] | residual activity [10] [%] | residual activity [11] [%] | residual activity [12] [%] | residual activity [13] [%] | residual activity [14] [%] | residual activity [15] [%] | residual activity [16] [%] | residual activity [17] [%] | residual activity [18] [%] | residual activity [19] [%] | residual activity [20] [%] | also measured |
| --- | --- | --- | --- | --- | --- | --- | --- | --- | --- | --- | --- | --- | --- | --- | --- | --- | --- | --- | --- | --- | --- |
| Cn1cc(Cl)c2c(Oc3c(F)cc(Nc4cc(Cl)nc(N)n4)cc3F)ccnc21 [BAY-4900] | 78 | 100 | 99 | 100 | 100 | 100 | 100 | 96 | 100 | 80 | 80 | 97 | 100 | 78 | 100 | 100 | 97 | 100 | 80 | 96 | residual activity [21]: 74%; residual activity [22]: 100%; residual activity [23]: 100%; residual activity [24]: 97%; residual activity [25]: 78%; residual activity [26]: 100%; residual activity [27]: 78%; residual activity [28]: 76%; residual activity [29]: 100%; residual activity [30]: 75%; inhibition [31]: -1.64%; inhibition [32]: 54.4%; inhibition [33]: -9.04% |
| Cc1c[nH]c2nccc(Oc3c(F)cc(Nc4cc(Cl)nc(N)n4)cc3F)c12 [BAY-549] | 85 | 92 | 98 | 94 | 100 | 100 | 89 | 86 | 100 | 100 | 92 | 85 | 72 | 77 | 100 | 100 | 84 | 91 | 99 | 83 | residual activity [21]: 55%; residual activity [22]: 100%; residual activity [23]: 100%; residual activity [24]: 94%; residual activity [25]: 75%; residual activity [26]: 100%; residual activity [27]: 98%; residual activity [28]: 86%; residual activity [29]: 100%; residual activity [30]: 67%; inhibition [31]: -1.5%; inhibition [32]: 64.6%; inhibition [33]: -8.74% |
